# Results as given in PubChem BioAssay AID1208 (EPA DSSTox, 2008).
# Active and inactive are the calls of the source.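 The calls were made as follows: active = at least one rat sex group has a carcinogenic potency value and tumor site recorded; inconclusive = only rat studies were judged inadequate by the national testing program; inactive = no potency or tumor site, with negative rat experiments.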
# Test system: rat chronic carcinogenicity bioassay, TD50
# Assay: DSSTox (CPDBAS) Carcinogenic Potency Database Summary Rat Bioassay Results
# Details: for Potency: stronger effect = lower value; for outcome: TD50_Rat_Note: no positive results
# Method in brief: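 Chronic long-term rat cancer bioassays from literature and NCI/NTP, taking the most positive result per sex. TD50 in mmol converted to a 1–100 Activity Score from log10(1/TD50). Mixtures lacking TD50 scored 50.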
# [1] = TargetSites_Rat_Female: no positive results
# [2] = TD50_Rat_Note: TD50 is harmonic mean of more than one positive test, TargetSites_Rat_Female: stomach
# [3] = TargetSites_Rat_BothSexes: all tumor bearing animals
compound,measurement,setting,value
Cn1c(N)nc2c3cccnc3ccc21,Potency,"TD50_Rat_Note: TD50 is harmonic mean of more than one positive test, greater than ten-fold variation among TD50 values for positive res, TargetSites_Rat_Female: clitoral gland, ear Zymbals gland, large intestine, liver, mammary gland, oral cavity, preputial gland, skin, small inte",0.812 mg/kg/day
same,Potency,"TargetSites_Rat_Female: ear Zymbals gland, liver, mammary gland, pancreas, urinary bladder, vascular system",3.29 mg/kg/day
O=[N+]([O-])c1ccc(-c2nc(NCCO)c3ccccc3n2)s1,Potency,TargetSites_Rat_Female: all tumor bearing animals,1.87 mg/kg/day
COc1ccccc1N,Potency,"TD50_Rat_Note: TD50 is harmonic mean of more than one positive test, TargetSites_Rat_Female: urinary bladder",29.7 mg/kg/day
C#C[C@]1(OC(C)=O)CC[C@H]2[C@@H]3CCC4=C[C@@H](OC(C)=O)CC[C@@H]4[C@H]3CC[C@@]21C,outcome,[1],inactive
COc1cc(/C=C/C(=O)O[C@H]2CC[C@]34C[C@]35CC[C@]3(C)[C@@H]([C@H](C)CCC=C(C)C)CC[C@@]3(C)[C@@H]5CC[C@H]4C2(C)C)ccc1O,outcome,[1],inactive; no positive results
CCCCCCCCCCCCCCCC(=O)CC(=O)CCCCCCCCCCCCCCC,outcome,[1],inactive
NC(=O)CCCCn1ccc(NC(N)=NCC(F)(F)F)n1,Potency,[2],1170 mg/kg/day
Nc1nc(N)nc(-c2cc(Cl)ccc2Cl)n1,outcome,,inactive; no positive results
NC(=O)c1ccccc1C(N)=O,outcome,[1],inactive; no positive results
CN[C@H]1CCc2cc(OC)c(OC)c(OC)c2-c2ccc(OC)c(=O)cc21,outcome,,inactive; no positive results
Nc1c(Cl)cc(Cl)cc1Cl,outcome,,inactive; no positive results
CN(N=O)c1ccc([N+](=O)[O-])cc1,outcome,,inactive; no positive results
Cc1c(N)nc(C)c2c1[nH]c1ccccc12,Potency,"TD50_Rat_Note: TD50 is harmonic mean of more than one positive test, TargetSites_Rat_Female: liver",0.575 mg/kg/day
O=S1(=O)CC=CC1,outcome,[1],inactive; no positive results
CC1(C)S[C@@H]2[C@H](NC(=O)[C@H](N)c3ccccc3)C(=O)N2[C@H]1C(=O)O,outcome,[1],inactive; no positive results
NC(=O)N(CCCO)N=O,Potency,[2],0.978 mg/kg/day
FC(Cl)(Cl)Cl,outcome,[1],inactive; no positive results
COc1ccc2nc(S(=O)Cc3ncc(C)c(OC)c3C)[nH]c2c1 (stereo unspecified),Potency,"TD50_Rat_Note: TD50 is harmonic mean of more than one positive test, greater than ten-fold variation among TD50 values for positive res, TargetSites_Rat_Female: stomach",119 mg/kg/day
ClC1(Cl)C2(Cl)C3(Cl)C4(Cl)C(Cl)(Cl)C5(Cl)C3(Cl)C1(Cl)C5(Cl)C24Cl (stereo unspecified),Potency,"TD50_Rat_Note: TD50 is harmonic mean of more than one positive test, TargetSites_Rat_Female: hematopoietic system, liver",1.77 mg/kg/day
FCC(F)(F)F,Potency,[1],29900 mg/kg/day
O.O=S(=O)([O-])[O-].[Mn+2],outcome,[1],inactive; no positive results
O=S(=O)(O)O,Potency,"TD50_Rat_Note: TD50 is harmonic mean of more than one positive test, TargetSites_Rat_Female: lung",40.8 mg/kg/day
COC(=O)NN,outcome,[1],inactive; no positive results
O=C1CCCCCN1,outcome,[1],inactive; no positive results
O=NN1CCCCO1,Potency,[3],24.3 mg/kg/day
CCBr,Potency,"TD50_Rat_Note: no positive results are statistically significant, TargetSites_Rat_Female: no positive results",149 mg/kg/day
O=Cc1ccco1,Potency,[1],683 mg/kg/day
[O-][Cl+]O,outcome,[1],inactive; no positive results
Clc1ccc(Sc2cc(Cl)c(Cl)cc2Cl)cc1,outcome,[1],inactive; no positive results
COc1ccc(N)cc1,outcome,[1],inactive; no positive results
CC(C)CCCCCCOC(=O)c1ccccc1C(=O)OCCCCCCC(C)C,Potency,"TD50_Rat_Note: TD50 is harmonic mean of more than one positive test, TD50_Rat_mmol was not calculated for this mixture, but Activiity S, TargetSites_Rat_Female: hematopoietic system, liver",861 mg/kg/day
COc1cc2c(cc1N)oc1ccccc12,Potency,"TD50_Rat_Note: TD50 is harmonic mean of more than one positive test, harmonic mean of TD50 includes a value for upper 99% confidence li, TargetSites_Rat_Female: ear Zymbals gland, mammary gland, urinary bladder",29 mg/kg/day
CN(C)Nc1nc(-c2ccc([N+](=O)[O-])o2)cs1,Potency,"TD50_Rat_Note: harmonic mean of TD50 includes a value for upper 99% confidence limit from study with 100% tumor incidence but no lifeta, TargetSites_Rat_Female: hematopoietic system, mammary gland",0.41 mg/kg/day
C[C@]12C/C(=C/O)C(=O)C[C@@H]1CC[C@@H]1[C@@H]2CC[C@@]2(C)[C@H]1CC[C@]2(C)O,Potency,"TargetSites_Rat_Female: liver, lung, skin",66.9 mg/kg/day
CCC[CH2][Sn]([CH2]CCC)([CH2]CCC)[O][Sn]([CH2]CCC)([CH2]CCC)[CH2]CCC,outcome,[1],inactive; no positive results
O=S(=O)(O)c1cc(S(=O)(=O)O)c2c(N=Nc3ccc(S(=O)(=O)O)c4ccccc34)c(O)ccc2c1,Potency,[3],24500 mg/kg/day
COc1cc(/C=C/C(=O)OCCc2ccccc2)ccc1O,outcome,,inactive; no positive results
CC(=O)Nc1nnc(-c2ccc([N+](=O)[O-])o2)s1,Potency,"TargetSites_Rat_Female: hematopoietic system, kidney, lung, small intestine, stomach, vascular system",8.84 mg/kg/day
S=P(N1CC1)(N1CC1)N1CC1,Potency,"TD50_Rat_Note: positive test results only by intraperitoneal or intravenous injection, TD50 is harmonic mean of more than one positive, TargetSites_Rat_Female: ear Zymbals gland",0.164 mg/kg/day
O=C(O)c1ccccc1-c1c2cc(I)c(=O)c(I)c-2oc2c(I)c(O)c(I)cc12,outcome,[1],inactive; no positive results
C=CCN(CC(O)CO)N=O (stereo unspecified),Potency,"TargetSites_Rat_Female: esophagus, nasal cavity",0.825 mg/kg/day
Cc1cc(O)c(C(C)(C)C)cc1Sc1cc(C(C)(C)C)c(O)cc1C,outcome,[1],inactive; no positive results
[O-][Br+2]([O-])O,Potency,"TD50_Rat_Note: TD50 is harmonic mean of more than one positive test, TargetSites_Rat_Female: kidney",9.82 mg/kg/day
CC(C)NCC(O)COc1cccc2ccccc12 (stereo unspecified),outcome,[1],inactive; no positive results
Cc1cccc(C)c1NC1=NCCCS1,outcome,,inactive; no positive results
CCN(CC)CCCNC(=O)Cn1ncc(-c2ccccc2)c1-c1ccccc1,outcome,[1],inactive; no positive results
COc1cc(-c2ccc(N=C=O)c(OC)c2)ccc1N=C=O,Potency,"TD50_Rat_Note: TD50 is harmonic mean of more than one positive test, TargetSites_Rat_Female: hematopoietic system, uterus",1630 mg/kg/day
CN(C)N=O,Potency,"TD50_Rat_Note: TD50 is harmonic mean of more than one positive test, greater than ten-fold variation among TD50 values for positive res, TargetSites_Rat_Female: liver, vascular system",0.0959 mg/kg/day
CC(C)(C)c1cc([N+](=O)[O-])cc([N+](=O)[O-])c1OS(C)(=O)=O,outcome,[1],inactive; no positive results
COc1ccc([N+](=O)[O-])cc1N=Nc1c(O)c(C(=O)Nc2cccc([N+](=O)[O-])c2)cc2ccccc12,outcome,[1],inactive; no positive results
Oc1ccccc1-c1ccccc1,Potency,"TD50_Rat_Note: TD50 is harmonic mean of more than one positive test, greater than ten-fold variation among TD50 values for positive res, TargetSites_Rat_Female: urinary bladder",672 mg/kg/day
same,Potency,,232 mg/kg/day
COc1ccc(C(c2ccc(OC)cc2)C(Cl)(Cl)Cl)cc1,outcome,[1],inactive; no positive results
CSCCC(N)C(=O)O (stereo unspecified),outcome,,inactive; no positive results
Cc1cc(O)ccc1O,outcome,,inactive; no positive results
O[C@@H]([C@H](O)[C@@H](O)CBr)[C@@H](O)CBr,Potency,"TD50_Rat_Note: positive test results only by intraperitoneal or intravenous injection, TD50 is harmonic mean of more than one positive, TargetSites_Rat_Female: mammary gland, peritoneal cavity",27.6 mg/kg/day
S=C1NCCN1,Potency,"TD50_Rat_Note: TD50 is harmonic mean of more than one positive test, greater than ten-fold variation among TD50 values for positive res, TargetSites_Rat_Female: thyroid gland, TargetSites_Rat_BothSexes: liver",8.13 mg/kg/day
O=[N+]([O-])O,outcome,[1],inactive; no positive results
CN(N=O)c1ccc(F)cc1,Potency,,0.255 mg/kg/day
NC(=O)/C(=C\c1ccc([N+](=O)[O-])o1)c1ccco1,Potency,"TD50_Rat_Note: TD50 is harmonic mean of more than one positive test, greater than ten-fold variation among TD50 values for positive res, TargetSites_Rat_Female: mammary gland",29.4 mg/kg/day
Cc1ccccc1N=O,Potency,,50.7 mg/kg/day
CCC1(c2ccccc2)C(=O)NC(=O)NC1=O,outcome,[1],inactive; no positive results
O=[N+]([O-])c1ccc2c(c1)Cc1ccccc1-2,Potency,,0.285 mg/kg/day
Nc1ccc(Cl)c(N)c1,Potency,[1],315 mg/kg/day
O=S1(=O)N=C(O)c2ccccc21,outcome,,inactive; no positive results
Nc1nc(-c2ccc([N+](=O)[O-])o2)cs1,Potency,"TargetSites_Rat_Female: stomach, urinary bladder",5.85 mg/kg/day
c1ccc(NNc2ccccc2)cc1,Potency,"TD50_Rat_Note: TD50 is harmonic mean of more than one positive test, TargetSites_Rat_Female: liver, mammary gland",5.59 mg/kg/day
Cc1cc(Cl)ccc1OCC(=O)O,outcome,[1],inactive; no positive results
O=CC1CO1 (stereo unspecified),outcome,[1],inactive
O=S(=O)(O)c1cc(S(=O)(=O)O)c2c(N=Nc3ccccc3)c(O)ccc2c1,outcome,[1],inactive; no positive results
O=NN1CSCSC1,outcome,[1],inactive
C[C@]12CCC(=O)C=C1CC[C@@H]1[C@@H]2[C@@H](O)C[C@@]2(C)[C@H]1CC[C@]2(O)C(=O)CO,outcome,[1],inactive; no positive results
CC(O)CO (stereo unspecified),outcome,[1],inactive; no positive results
CCc1nc(N)nc(N)c1-c1ccc(Cl)cc1,outcome,[1],inactive; no positive results
CC(C)(C)c1cc(C(C)(C)C)c(O)c(C(C)(C)C)c1,outcome,[1],inactive; no positive results
C/C=C/C=C/C=O,Potency,[2],62.2 mg/kg/day
[O]=[Cr][O][Cr]=[O],outcome,TargetSites_Rat_BothSexes: no positive results,inactive
CCCCN(CCCC)N=O,Potency,,0.691 mg/kg/day
Nc1ccccc1N,Potency,,248 mg/kg/day
Nc1ccc([N+](=O)[O-])cc1N,outcome,[1],inactive; no positive results
Cc1cc(-c2ccc(N)c(C)c2)ccc1N,Potency,"TD50_Rat_Note: TD50 is harmonic mean of more than one positive test, TargetSites_Rat_Female: clitoral gland, ear Zymbals gland, large intestine, liver, lung, mammary gland, oral cavity, skin, small intestine",0.629 mg/kg/day
O=C1O[C@H]([C@H](O)CO)C(O)=C1O,outcome,[1],inactive; no positive results
O=[N+]([O-])c1ccc(-c2cscn2)o1,Potency,"TargetSites_Rat_Female: mammary gland, stomach",7.68 mg/kg/day
COc1cc(S(C)=O)ccc1-c1nc2ccncc2[nH]1 (stereo unspecified),Potency,"TD50_Rat_Note: TD50 is harmonic mean of more than one positive test, TargetSites_Rat_Female: adrenal gland",70.5 mg/kg/day
C/C=C1/C[C@@H](C)[C@](O)(CO)C(=O)OCC2=CCN3CC[C@@H](OC1=O)[C@@H]23,Potency,,0.862 mg/kg/day
